This test deals with T1, human VR1 (Homo sapiens, UniProt Q8NER1).
T1 construct: expressed in transfected cells
Nature of the test: FLIPR Calcium 3 calcium flux assay (headed Vanilloid Receptor Binding Assay), antagonist activity against capsaicin. The note with it: Chinese hamster ovary cells expressing human VR1; for inhibition at 10 µM: 10 min, highest concentration of 10 μM, read-out: TRPV1 % Mean effect at 10 μM concentration; for EC50: antagonist activity vs 30 nM capsaicin, read-out: TRPV1 pEC50 (converted). The test is classed as cell-based. The text has this:
Methods to construct such recombinant cell lines are well known in the art (Sambrook et al., Molecular Cloning: a Laboratory Manual, Cold Spring Harbor Laboratory Press, Cold Spring Harbor, 2000). The compounds of the invention are thus useful in the treatment of TRPV1 mediated disorders, such as in the treatment of acute and chronic pain disorders, acute and chronic neuropathic pain, acute and chronic inflammatory pain, respiratory diseases and in lower urinary tract disorders.
Test compounds were prepared as stock solution in dimethylsulfoxide and tested for activity over several log units (ranging 100 μM-100 pM). Compounds were further diluted in assay buffer as necessary for IC50 determination.
Chinese hamster ovary cells expressing human VR1 were grown in DMEM/F12 50/50 Mix (Mediatech, Inc., Herndon, Va., USA), supplemented with 10% FetalClone II (Hyclone, Logan, Utah, USA), 1% GlutaMax (Invitrogen Corp., Carlsbad, Calif., USA), 1% Pen/Strep (Mediatech) and 0.4 mg/ml G418 (Mediatech). The day before the assay, cells were seeded into 384-well tissue culture-treated black plates with clear bottoms (Corning, Inc., Corning, N.Y., USA), at 10,000 viable cells/well in 50 μl/well of medium containing no G418.
On the day of the assay, which is the FLIPR® Calcium 3 Assay commercially available from Molecular Devices Corp., Sunnyvale, Calif. USA, the plating medium was removed and replaced with 25 μl/well 1× Calcium 3 Assay kit dye, prepared in VR1 Buffer (160 mM NaCl, 4.5 mM KCl, 10 mM HEPES, 10 mM Glucose, 2 mM CaCl2, 1 mM MgCl2 and 0.5 mM Probenecid). After 1 hour incubation at room temperature, the plates were loaded into the FLIPR (Molecular Devices, Corp.), which adds 12.5 μl of test compound in VR1 Buffer containing 4% dimethylsulfoxide and reads the subsequent change in the fluorescence of the cells to monitor agonist activity. Ten minutes after compound addition, the plates were reloaded into the FLIPR, which adds 12.5 μl of 30 nM capsaicin in VR1 Buffer and reads the subsequent change in the fluorescence of the cells to monitor antagonist activity. In this way, the same assay was used to assess both the agonist activity and antagonist activity of test compounds.
In general terms: A change in cytosolic calcium serves as a functional read-out for many receptors and channels.

T1 sequence (Q8NER1 whole entry): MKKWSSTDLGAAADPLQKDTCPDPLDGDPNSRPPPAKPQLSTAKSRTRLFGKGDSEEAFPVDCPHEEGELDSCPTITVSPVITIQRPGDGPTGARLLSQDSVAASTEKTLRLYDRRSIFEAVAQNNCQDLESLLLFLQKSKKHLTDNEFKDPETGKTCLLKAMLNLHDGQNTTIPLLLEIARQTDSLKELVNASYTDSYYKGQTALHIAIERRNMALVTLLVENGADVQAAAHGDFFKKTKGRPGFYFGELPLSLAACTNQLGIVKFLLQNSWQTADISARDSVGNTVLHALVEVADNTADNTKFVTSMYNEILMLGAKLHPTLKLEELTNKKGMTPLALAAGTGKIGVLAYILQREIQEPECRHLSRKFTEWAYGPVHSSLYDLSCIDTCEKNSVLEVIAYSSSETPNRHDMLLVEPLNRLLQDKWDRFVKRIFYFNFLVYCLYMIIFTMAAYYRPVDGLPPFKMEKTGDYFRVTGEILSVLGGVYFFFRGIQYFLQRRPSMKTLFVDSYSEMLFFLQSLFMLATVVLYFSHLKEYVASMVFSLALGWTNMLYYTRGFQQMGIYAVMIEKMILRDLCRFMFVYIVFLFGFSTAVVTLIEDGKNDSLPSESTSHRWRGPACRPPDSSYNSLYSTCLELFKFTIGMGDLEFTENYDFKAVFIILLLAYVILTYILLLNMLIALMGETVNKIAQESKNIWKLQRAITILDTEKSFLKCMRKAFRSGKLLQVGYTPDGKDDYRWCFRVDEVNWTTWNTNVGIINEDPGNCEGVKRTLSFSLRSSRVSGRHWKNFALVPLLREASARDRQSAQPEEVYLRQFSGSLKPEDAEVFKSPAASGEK

As to `CC[C@H](CO)NC(=O)c1noc(-c2ccc(C(F)(F)F)c(F)c2)c1C`, the inhibition at 10 µM is 99% and the EC50 is 63.1 nM.

With `O=C(NC1CCCCC1)c1noc(-c2ccc(Cl)cc2)c1Cl`, the inhibition at 10 µM came to 88% and the EC50 is 63.1 nM.

Regarding `O=C(NC1CCCC1)c1cc(-c2ccc(C(F)(F)F)cc2)on1`, the inhibition at 10 µM was found to be 97% and the EC50 is 501 nM.

In the case of `CCCC(C)NC(=O)c1noc(-c2ccc(Cl)cc2)c1Cl` (centres unmarked), the inhibition at 10 µM stood at 89% and the EC50 was 158 nM.

Take `O=C(NC1CCOCC1)c1noc(-c2ccc(C(F)(F)F)cc2)c1Cl`: the inhibition at 10 µM came out at 89% and the EC50 was 31.6 nM.

As for `Cc1c(C(=O)NC2CCCC2)noc1-c1ccc(C(F)(F)F)cc1`, the inhibition at 10 µM is 101% and the EC50 is 39.8 nM.

As for `O=C(NC1CCCC1)c1noc(-c2ccc(C(F)(F)F)cc2)c1F`, the inhibition at 10 µM came out at 96% and the EC50 is 31.6 nM.

Regarding `CCCc1c(C(=O)CC2CCCC2)noc1-c1ccc(C(F)(F)F)cc1`, the inhibition at 10 µM was 98% and the EC50 was 100 nM.

Regarding `Cc1c(C(=O)N[C@@H](C)C(C)C)noc1-c1ccc(C(F)(F)F)c(F)c1`, the inhibition at 10 µM is 103% and the EC50 was 100 nM.

On to `O=C(NC1CCCC1)c1noc(-c2ccc(F)cc2)c1Cl`, for which the inhibition at 10 µM is 98% and the EC50 is 100 nM.

As for `O=C(NC1CCCC1)c1noc(-c2ccc(Cl)cc2)c1Cl`, the inhibition at 10 µM worked out at 102% and the EC50 was 15.8 nM.

Take `O=C(NC1CCCC1)c1noc(-c2ccc(C(F)(F)F)cc2)c1Cl`: the inhibition at 10 µM was 90% and the EC50 is 3.98 nM.

For `O=C(NC1CCCC1)c1noc(-c2ccc(C(F)(F)F)cc2)c1Br`, the inhibition at 10 µM was 67% and the EC50 was 10 nM.

On to `CCCC(C)NC(=O)c1cc(-c2ccc(Cl)cc2)on1` (centres unmarked), for which the inhibition at 10 µM is 50%.

`O=C(Nc1cccc(CO)c1)c1noc(-c2ccc(C(F)(F)F)c(F)c2)c1Cl`: the inhibition at 10 µM came out at 103% and the EC50 was 31.6 nM.

With `O=C(NC1CCCC1)c1cc(-c2ccc(Cl)cc2)on1`, the inhibition at 10 µM stood at 17%.

In the case of `Cc1c(C(=O)NC2CCOCC2)noc1-c1ccc(C(F)(F)F)c(F)c1`, the inhibition at 10 µM is 99% and the EC50 was 12.6 nM.
